Measured values reported in article PMC11500415, “Chemical inhibition of stomatal differentiation by perturbation of the master-regulatory bHLH heterodimer via an ACT-Like domain” (Nature Communications, 2024).
Several values for one entry are separate records, joined by “and”; a condition that tells them apart may be missing. Identical values can stand only once.

Legend:
Type in all cases: cell-based
MUTE+AD (control yeast) = target: T1, MUTE+AD (control yeast) (Arabidopsis thaliana, UniProt Q9M8K6); assay: Y2H quantitative α-galactosidase assay, control yeast MUTE+AD; details: media -WL, replicates #1-#3
T1 construct: expressed in transfected cells; host or cells: yeast strain AH109
T1 sequence (Q9M8K6 1-202): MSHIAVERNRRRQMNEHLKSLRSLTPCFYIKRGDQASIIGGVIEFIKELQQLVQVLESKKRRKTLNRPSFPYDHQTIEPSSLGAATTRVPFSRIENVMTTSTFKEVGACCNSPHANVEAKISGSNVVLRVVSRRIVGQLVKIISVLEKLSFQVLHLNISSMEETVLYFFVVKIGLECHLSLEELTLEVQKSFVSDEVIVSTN
Description: Supplement 41467_2024_53214_MOESM7_ESM.xlsx, sheet "Fig.S5" | column: Meristemoid

SCRM-FAMA heterodimer = target: T2, SCRM-FAMA heterodimer (Arabidopsis thaliana, UniProt Q56YJ8); assay: Y2H growth and quantitative α-galactosidase assay; details: yeast FAMA∆N+SCRM, media -WLH, replicates #1-#3
T2 construct: truncated SPCH and FAMA proteins lacking their N-terminal domain were used in yeast; expressed in transfected cells; host or cells: yeast strain AH109
Method: (§1) Y2H assays were performed using the Matchmaker^TM Two-Hybrid System (Clontech). Bait (pGBKT7) and prey (pGADT7) constructs were co-transformed into the yeast strain AH109 using Frozen-EZ Yeast Transformation II Kit (Zymo Research, T2001). The resulting transformants were spotted on SD ( − Leu, −Trp) and SD ( − Trp, −Leu, −His) selection media containing different concentrations of 3-amino-1,2,4-triazole (Sigma, A8056) as previously reported. Quantitative α-galactosidase assay was also performed according to manufactural instruction (Clontech). Briefly, the transformants were incubated in 2 ml SD medium with 0, 10, 50 100 μM Stomidazolone (3) or SIM3* (7) with rotary shake (220 rpm) at 30 °C overnight. The cultured media containing yeast were transferred to microtubes and centrifuged to obtain the supernatant. The colorimetric assay was performed by incubating 8 μL of supernatant with 24 μL Assay Buffer that contains 0.5 M sodium acetate (pH 4.5) (Nakalai tesque, 31137-25): 100 mM p-nitrophenyl α-D-Galactopyranoside Solution (Sigma N0877) = 2:1 (v/v) at 30 °C for 60 min, then terminated by adding 960 μL 1X Stop Solution (0.1 M sodium carbonate, Fujifilm Wako 195-01582). After OD410 was recorded, α-galactosidase units were calculated according to the protocol (Clontech, P3024-1).

SCRM-MUTE heterodimer = target: T3, SCRM-MUTE heterodimer (Arabidopsis thaliana, UniProt Q9M8K6); assay: Y2H growth and quantitative α-galactosidase assay; details: yeast MUTE+SCRM, media -WLH, replicates #1-#3
T3 construct: expressed in transfected cells; host or cells: yeast strain AH109
T3 sequence (Q9M8K6 1-202): T1 sequence (Q9M8K6 1-202)
Method: as §1

SCRM-SPCH heterodimer = target: T4, SCRM-SPCH heterodimer (Arabidopsis thaliana, UniProt Q700C7); assay: Y2H growth and quantitative α-galactosidase assay; details: yeast SPCH∆N+SCRM, media -WLH, replicates #1-#3
T4 construct: truncated SPCH and FAMA proteins lacking their N-terminal domain were used in yeast; expressed in transfected cells; host or cells: yeast strain AH109
T4 sequence (Q700C7 98-364 limits assumed): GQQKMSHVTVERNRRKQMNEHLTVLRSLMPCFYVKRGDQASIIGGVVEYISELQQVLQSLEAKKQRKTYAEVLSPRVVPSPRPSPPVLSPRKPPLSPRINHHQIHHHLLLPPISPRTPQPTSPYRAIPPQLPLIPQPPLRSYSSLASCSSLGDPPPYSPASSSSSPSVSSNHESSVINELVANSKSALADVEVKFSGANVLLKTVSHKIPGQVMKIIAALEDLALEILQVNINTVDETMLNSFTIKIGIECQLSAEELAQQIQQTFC
Method: as §1

DB+SCRM (control yeast) = target: T5, DB+SCRM (control yeast) (Arabidopsis thaliana, UniProt Q9LSE2); assay: Y2H quantitative α-galactosidase assay, control yeast DB+SCRM; details: media -WL, replicates #1-#3
T5 construct: expressed in transfected cells; host or cells: yeast strain AH109
T5 sequence (Q9LSE2 1-494): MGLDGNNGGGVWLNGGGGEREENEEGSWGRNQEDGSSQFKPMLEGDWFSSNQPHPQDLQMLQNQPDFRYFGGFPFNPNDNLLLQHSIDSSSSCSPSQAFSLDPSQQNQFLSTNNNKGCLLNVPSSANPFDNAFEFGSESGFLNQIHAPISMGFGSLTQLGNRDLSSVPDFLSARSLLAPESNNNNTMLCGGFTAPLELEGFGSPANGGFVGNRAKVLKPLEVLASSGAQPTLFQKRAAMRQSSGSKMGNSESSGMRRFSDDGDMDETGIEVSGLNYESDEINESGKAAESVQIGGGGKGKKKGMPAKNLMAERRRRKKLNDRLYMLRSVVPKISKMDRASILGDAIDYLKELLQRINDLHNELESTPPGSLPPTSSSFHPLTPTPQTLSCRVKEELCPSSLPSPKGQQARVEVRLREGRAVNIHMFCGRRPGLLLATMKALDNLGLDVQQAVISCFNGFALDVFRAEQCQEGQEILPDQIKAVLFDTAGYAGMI

T2 sequence (Q56YJ8 190-414, one chain of several): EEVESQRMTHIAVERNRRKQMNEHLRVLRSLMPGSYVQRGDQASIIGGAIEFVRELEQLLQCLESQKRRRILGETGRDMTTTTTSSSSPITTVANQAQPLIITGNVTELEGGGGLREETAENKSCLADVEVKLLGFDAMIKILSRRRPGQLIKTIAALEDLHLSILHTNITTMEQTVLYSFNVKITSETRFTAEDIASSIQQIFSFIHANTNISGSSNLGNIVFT

Cc1nc(-c2ccccc2)c(NS(=O)(=O)c2ccccc2)o1 [SIM3*]
a-galactosidase (MUTE+AD (control yeast); 10 µM): 0.05913 milliunits /(ml x cell) and 0.1128 milliunits /(ml x cell) and 0.06646 milliunits /(ml x cell)
a-galactosidase (MUTE+AD (control yeast); 50 µM): 0.06252 milliunits /(ml x cell) and 0.06546 milliunits /(ml x cell) and 0.1442 milliunits /(ml x cell)
a-galactosidase (MUTE+AD (control yeast); 100 µM): 0.1449 milliunits /(ml x cell) and 0.1698 milliunits /(ml x cell) and 0.1689 milliunits /(ml x cell)
a-galactosidase (SCRM-FAMA heterodimer; 10 µM): 9.596 milliunits /(ml x cell) and 8.612 milliunits /(ml x cell) and 10.2528 milliunits /(ml x cell)
a-galactosidase (SCRM-FAMA heterodimer; 50 µM): 8.883 milliunits /(ml x cell) and 8.135 milliunits /(ml x cell) and 9.605 milliunits /(ml x cell)
a-galactosidase (SCRM-FAMA heterodimer; 100 µM): 8.9516 milliunits /(ml x cell) and 9.181 milliunits /(ml x cell) and 8.943 milliunits /(ml x cell)
a-galactosidase (SCRM-MUTE heterodimer; 10 µM): 6.318 milliunits /(ml x cell) and 6.221 milliunits /(ml x cell) and 6.24 milliunits /(ml x cell)
a-galactosidase (SCRM-MUTE heterodimer; 50 µM): 7.176 milliunits /(ml x cell) and 6.898 milliunits /(ml x cell) and 6.187 milliunits /(ml x cell)
a-galactosidase (SCRM-MUTE heterodimer; 100 µM): 6.801 milliunits /(ml x cell) and 6.285 milliunits /(ml x cell) and 6.027 milliunits /(ml x cell)
a-galactosidase (SCRM-SPCH heterodimer; 10 µM): 4.934 milliunits /(ml x cell) and 5.0596 milliunits /(ml x cell) and 4.687 milliunits /(ml x cell)
a-galactosidase (SCRM-SPCH heterodimer; 50 µM): 4.693 milliunits /(ml x cell) and 5.268 milliunits /(ml x cell) and 5.059 milliunits /(ml x cell)
a-galactosidase (SCRM-SPCH heterodimer; 100 µM): 6.071 milliunits /(ml x cell) and 5.524 milliunits /(ml x cell) and 5.145 milliunits /(ml x cell)
a-galactosidase (DB+SCRM (control yeast); 10 µM): 0.04682 milliunits /(ml x cell) and 0.1024 milliunits /(ml x cell) and 0.1038 milliunits /(ml x cell)
a-galactosidase (DB+SCRM (control yeast); 50 µM): 0.1114 milliunits /(ml x cell) and 0.04747 milliunits /(ml x cell) and 0.1243 milliunits /(ml x cell)
a-galactosidase (DB+SCRM (control yeast); 100 µM): 0.1293 milliunits /(ml x cell) and 0.1919 milliunits /(ml x cell) and 0.06561 milliunits /(ml x cell)
